Assay results taken from PubChem BioAssay AID248 (DTP/NCI, 2004).
Several values for one entry are separate records, joined by “and”; a condition that tells them apart may be missing. Equal entries are not always repeated. Toxic doses and inconclusive results are not listed.

System: L1210 leukemia ip in BDF1 mice, survival T/C
Assay: NCI In Vivo Anticancer Drug Screen. Data for tumor model L1210 Leukemia (intraperitoneal) in B6D2F1 (BDF1) mice
Conditions: endpoint: mean survival time, higher = longer survival
Summary of the method: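 Transplantable tumor model; survival measured in treated vs vehicle control mice. Value = treated/control.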

[1] = dose: 200.0 mg/kg/injection, schedule: Q01DX001 (ip), vehicle: saline
[2] = dose: 100.0 mg/kg/injection, schedule: Q01DX001 (ip), vehicle: saline
[3] = dose: 400.0 mg/kg/injection, schedule: Q01DX001 (ip), vehicle: saline

O/N=c1/ccn(O)c2ccccc12
T/C (dose: 0.5 mg/kg/injection, schedule: Q03HX008 (ip), vehicle: other): 114 % of control
T/C (dose: 0.51 mg/kg/injection, schedule: Q01DX009 (ip), vehicle: saline): 111 % of control and 119 % of control
T/C (dose: 0.78 mg/kg/injection, schedule: Q01DX009 (ip), vehicle: saline): 116 % of control
T/C (dose: 1.0 mg/kg/injection, schedule: Q01DX009 (sc), vehicle: other): 114 % of control
T/C (dose: 1.17 mg/kg/injection, schedule: Q01DX009 (ip), vehicle: saline): 110 % of control
T/C (dose: 1.7 mg/kg/injection, schedule: Q01DX015 (ip), vehicle: saline): 108 % of control
T/C (dose: 2.0 mg/kg/injection, schedule: Q01DX009 (sc), vehicle: other): 113 % of control
T/C (dose: 2.0 mg/kg/injection, schedule: Q01DX015 (ip), vehicle: saline): 122 % of control
T/C (dose: 2.0 mg/kg/injection, schedule: Q03HX008 (ip), vehicle: other): 151 % of control
T/C (dose: 4.0 mg/kg/injection, schedule: Q01DX001 (sc), vehicle: other): 118 % of control
T/C (dose: 4.0 mg/kg/injection, schedule: Q01DX009 (ip), vehicle: other): 88 % of control
T/C (dose: 4.0 mg/kg/injection, schedule: Q01DX009 (oral), vehicle: other): 98 % of control
T/C (dose: 4.0 mg/kg/injection, schedule: Q01DX009 (sc), vehicle: other): 104 % of control
T/C (dose: 4.0 mg/kg/injection, schedule: Q03HX016 (ip), vehicle: other): 87 % of control
T/C (dose: 4.4 mg/kg/injection, schedule: Q01DX001 (ip), vehicle: other): 113 % of control
T/C (dose: 6.0 mg/kg/injection, schedule: Q01DX015 (ip), vehicle: saline): 123 % of control
T/C (dose: 6.6 mg/kg/injection, schedule: Q01DX001 (ip), vehicle: other): 113 % of control
T/C (dose: 8.0 mg/kg/injection, schedule: Q01DX001 (ip), vehicle: other): 108 % of control
T/C (dose: 8.0 mg/kg/injection, schedule: Q01DX001 (oral), vehicle: other): 102 % of control
T/C (dose: 8.0 mg/kg/injection, schedule: Q01DX001 (sc), vehicle: other): 108 % of control
T/C (dose: 8.0 mg/kg/injection, schedule: Q01DX005 (ip), vehicle: other): 93 % of control
T/C (dose: 8.0 mg/kg/injection, schedule: Q01DX009 (oral), vehicle: other): 108 % of control
T/C (dose: 8.0 mg/kg/injection, schedule: Q01DX009 (sc), vehicle: other): 120 % of control
T/C (dose: 8.0 mg/kg/injection, schedule: Q04DX003 (ip), vehicle: other): 110 % of control
T/C (dose: 8.0 mg/kg/injection, schedule: Q08DX002 (ip), vehicle: other): 114 % of control
T/C (dose: 9.0 mg/kg/injection, schedule: Q01DX015 (ip), vehicle: saline): 87 % of control
T/C (dose: 16.0 mg/kg/injection, schedule: Q01DX001 (oral), vehicle: other): 103 % of control
T/C (dose: 16.0 mg/kg/injection, schedule: Q01DX001 (sc), vehicle: other): 96 % of control
T/C (dose: 16.0 mg/kg/injection, schedule: Q01DX009 (oral), vehicle: other): 103 % of control
T/C (dose: 25.0 mg/kg/injection, schedule: Q04DX003 (ip), vehicle: saline): 88 % of control
T/C (dose: 32.0 mg/kg/injection, schedule: Q01DX001 (oral), vehicle: other): 113 % of control
T/C (dose: 32.0 mg/kg/injection, schedule: Q01DX001 (sc), vehicle: other): 118 % of control
T/C (dose: 32.0 mg/kg/injection, schedule: Q01DX009 (oral), vehicle: other): 103 % of control
T/C (dose: 40.0 mg/kg/injection, schedule: Q01DX001 (ip), vehicle: other): 109 % of control
T/C (dose: 64.0 mg/kg/injection, schedule: Q01DX001 (oral), vehicle: other): 104 % of control
T/C (dose: 80.0 mg/kg/injection, schedule: Q01DX001 (ip), vehicle: other): 89 % of control
T/C (dose: 128.0 mg/kg/injection, schedule: Q01DX001 (oral), vehicle: other): 103 % of control

CC(=O)N(C)C
T/C (dose: 62.5 mg/kg/injection, schedule: Q01DX010 (ip), vehicle: saline): 94 % of control and 97 % of control
T/C (dose: 125.0 mg/kg/injection, schedule: Q01DX010 (ip), vehicle: saline): 105 % of control and 91 % of control
T/C (dose: 250.0 mg/kg/injection, schedule: Q01DX010 (ip), vehicle: saline): 103 % of control and 91 % of control
T/C (dose: 500.0 mg/kg/injection, schedule: Q01DX001 (ip), vehicle: saline): 101 % of control
T/C (dose: 500.0 mg/kg/injection, schedule: Q01DX010 (ip), vehicle: saline): 100 % of control and 89 % of control
T/C (dose: 900.0 mg/kg/injection, schedule: Q01DX Z (ip), vehicle: other): 106 % of control
T/C (dose: 1000.0 mg/kg/injection, schedule: Q01DX001 (ip), vehicle: saline): 100 % of control
T/C (dose: 2000.0 mg/kg/injection, schedule: Q01DX001 (ip), vehicle: saline): 97 % of control
T/C (dose: 3000.0 mg/kg/injection, schedule: Q01DX Z (ip), vehicle: other): 87 % of control

Cc1cc(N(CCCl)CCCl)ccc1C=Nc1ccc(-c2csc(Cc3ccccc3)n2)c(Cl)c1
T/C (dose: 100.0 mg/kg/injection, schedule: Q01DX001 (sc), vehicle: carboxymethylcellulose (CMC)): 100 % of control
T/C (dose: 200.0 mg/kg/injection, schedule: Q01DX001 (sc), vehicle: carboxymethylcellulose (CMC)): 113 % of control
T/C (dose: 400.0 mg/kg/injection, schedule: Q01DX001 (sc), vehicle: carboxymethylcellulose (CMC)): 100 % of control

CC(C)c1ccc(/C=C2\CSC/C(=C/c3ccc(C(C)C)cc3)C2=O)cc1
T/C [1]: 95 % of control
T/C (dose: 200.0 mg/kg/injection, schedule: Q01DX009 (ip), vehicle: saline): 91 % of control

Brc1ccc(N=N/C(=N/Nc2ccccc2)c2ccc(/C=N/Nc3ccccc3)cc2)cc1
T/C (dose: 50.0 mg/kg/injection, schedule: Q01DX001 (ip), vehicle: saline): 95 % of control
T/C [2]: 101 % of control
T/C [1]: 95 % of control
T/C [3]: 91 % of control

CCC(=O)N(C)c1cccc(O)c1
T/C (dose: 100.0 mg/kg/injection, schedule: Q01DX001 (ip), vehicle: saline with Tween-80): 114 % of control
T/C (dose: 200.0 mg/kg/injection, schedule: Q01DX001 (ip), vehicle: saline with Tween-80): 94 % of control
T/C (dose: 400.0 mg/kg/injection, schedule: Q01DX001 (ip), vehicle: saline with Tween-80): 97 % of control

CCC1(c2ccccc2)C(=O)N(CBr)C(=O)N(CBr)C1=O
T/C (dose: 100.0 mg/kg/injection, schedule: Q01DX009 (ip), vehicle: saline with Tween-80): 90 % of control
T/C (dose: 100.0 mg/kg/injection, schedule: Q04DX002 (ip), vehicle: saline with Tween-80): 92 % of control
T/C (dose: 200.0 mg/kg/injection, schedule: Q04DX002 (ip), vehicle: saline with Tween-80): 100 % of control

O=C1c2ccccc2C(=O)c2c(NCCN3CCOCC3)ccc(NCCN3CCOCC3)c21
T/C (dose: 87.5 mg/kg/injection, schedule: Q01DX009 (ip), vehicle: Klucel (hydroxypropylcellulose) (HPC)): 96 % of control
T/C (dose: 175.0 mg/kg/injection, schedule: Q01DX009 (ip), vehicle: Klucel (hydroxypropylcellulose) (HPC)): 102 % of control
T/C (dose: 350.0 mg/kg/injection, schedule: Q01DX009 (ip), vehicle: Klucel (hydroxypropylcellulose) (HPC)): 107 % of control

c1cc2cc3c(cc2cc1CC1=NCCc2cc4c(cc21)OCO4)OCO3
T/C (dose: 100.0 mg/kg/injection, schedule: Q04DX003 (ip), vehicle: other): 94 % of control
T/C (dose: 200.0 mg/kg/injection, schedule: Q01DX009 (ip), vehicle: other): 102 % of control
T/C (dose: 200.0 mg/kg/injection, schedule: Q04DX003 (ip), vehicle: other): 108 % of control
T/C (dose: 400.0 mg/kg/injection, schedule: Q01DX009 (ip), vehicle: other): 94 % of control
T/C (dose: 400.0 mg/kg/injection, schedule: Q04DX003 (ip), vehicle: other): 105 % of control

O=c1cc(CS)[nH]c(=O)[nH]1
T/C (dose: 100.0 mg/kg/injection, schedule: Q04DX003 (ip), vehicle: saline): 98 % of control
T/C (dose: 200.0 mg/kg/injection, schedule: Q04DX003 (ip), vehicle: saline): 101 % of control
T/C (dose: 400.0 mg/kg/injection, schedule: Q04DX003 (ip), vehicle: saline): 98 % of control

CN(C)N=Nc1ccccc1C(F)(F)F
T/C (dose: 50.0 mg/kg/injection, schedule: Q01DX009 (ip), vehicle: Klucel (hydroxypropylcellulose) (HPC)): 109 % of control
T/C (dose: 100.0 mg/kg/injection, schedule: Q01DX009 (ip), vehicle: Klucel (hydroxypropylcellulose) (HPC)): 103 % of control and 107 % of control
T/C (dose: 100.0 mg/kg/injection, schedule: Q04DX003 (ip), vehicle: Klucel (hydroxypropylcellulose) (HPC)): 104 % of control
T/C (dose: 200.0 mg/kg/injection, schedule: Q01DX009 (ip), vehicle: Klucel (hydroxypropylcellulose) (HPC)): 107 % of control and 108 % of control
T/C (dose: 200.0 mg/kg/injection, schedule: Q04DX003 (ip), vehicle: Klucel (hydroxypropylcellulose) (HPC)): 104 % of control
T/C (dose: 400.0 mg/kg/injection, schedule: Q01DX009 (ip), vehicle: Klucel (hydroxypropylcellulose) (HPC)): 111 % of control and 114 % of control
T/C (dose: 400.0 mg/kg/injection, schedule: Q04DX003 (ip), vehicle: Klucel (hydroxypropylcellulose) (HPC)): 109 % of control

Cc1ccc(C2CC2S(=O)(=O)c2ccccc2)cc1 (configuration not stated)
T/C [2]: 108 % of control
T/C [1]: 112 % of control
T/C [3]: 102 % of control
